Measurements from US12486401B2, “‘Smart’ hydrogel for the radiosensitization and sustained delivery of therapeutics triggered by irradiation” (The Trustees of the University of Pennsylvania, priority 2019, dated 2025).

What was measured:
U251 DR5-Luc cells = assay: Cell based high throughput death receptor screen (DR5-Luc reporter bioluminescence); details: compound at 100 nM, 24 h; positive control Tunicamycin 100 nM
Protocol: High throughput screening (HTS) was performed by the HTS core at the University of Pennsylvania. U251 DR5-Luc cells were plated at 2.0×10^3 cells/well across ten 384 well plates. Plates were then incubated in a humidified environment at 37° C. and 5% CO2 for twenty-four hours. Compound from the Selleckchem Bioactive Compound Library I was added to each well at 100 nM (approximately 3200 compounds). Tunicamycin (100 nM) and DMSO (0.1% v/v) served a positive and negative plate controls. Brite-Lite (PerkinElmer, Waltham, MA) reagent was added all plates twenty-four hours following the addition of compound, and plates were assayed on Envision Xcite (PerkinElmer) plate reader. The mean (μ) and standard deviation (σ) for each plate was used to transform total flux for each compound (xi) into z-scores using the formula z=(xi−μ/σ). Calculation of Z-prime for this screening assay was based upon the formula set forth by Zhang et al utilizing Tunicamycin and DMSO as a positive and negative controls respectively. Positive hits were identified as compounds that produced z-prime values greater than Tunicamycin. Reporter activity was validated following compound incubation and bioluminescence imaging on the IVIS spectrum (PerkinElmer).

NS039 = assay: Compound dilution studies and cell viability (Cell Titer Glo); assay type: cell-based, human; details: for IC50: NS039, 72 h
Protocol: (§1) Cells were plated at density of 7.5-1.0×10^4 cells/well in 96 well plates using their respective media. Plates were then incubated in a humidified environment at 37° C. and 5% CO2 for twenty-four hours. An eleven-point dilution series of positive hits from our HTS screen was added to each plate. Cells treated with 0.1% DMSO served as a vehicle control. Plates were incubated with compound for seventy-two hours at 37° C. and 5% CO2, followed by addition of Cell Titer Glo® (Promega). Bio-luminescent readings were obtained using a Synergy HT luminometer (BioTek, Winooski, VT). Raw bio-luminescent values were normalized to their vehicle treated controls, and then fit to a modified Hill Equation using OriginPro 8 (OriginLab, Northampton, MA) in order to calculate IC50 values. All dilution series experiments were performed as biological triplicates.

T4213 = assay: as above; assay type: cell-based; details: for IC50: T4213, 72 h
Protocol: as §1

[1] = Cargo loading efficiency of Se-PCPP hydrogel (UV-Vis / ICP-OES); assay type: physicochemical; details: UV-vis spectroscopy
Protocol: Se-PCPP hydrogel: A mixture of 1 mL PCPP (4 mg·mL^−1, PBS) and 10.3 mg Na2HPO4 were mixed together and pH was adjusted to 7.4 by addition of HCl (1 M). Next, 1.4 μL of selenocystamine dihydrochloride (110 mg·mL^−1, PBS) were added to the mixture and vortexed for 30 seconds. The mixture was dropping into 10 mL of a CaCl2 (8.8%, DI H2O) and left to react under vigorous stirring for 20 minutes at room temperature. Finally, the solution was transferred to conical tubes and centrifuged at 2 k rpm for 8 min. The supernatant was discarded, and the pellet was re-suspended in DI water. After repeating this process three times, the Se-PCPP solution was re-suspended in DI water, vortexed at 14 k rpm and stored at 4° C. The final concentration of […] in the sample was determined using ICP-OES performed on a Spectro Genesis ICP.
Cargo loaded Se-PCPP hydrogel: For the cargo loaded Se-PCPP hydrogel, the PCPP (4 mg/mL, PBS) solution was mixed with the desired amount of cargo (solutions of doxorubicin, FITC-BSA or quisinostat at 1 mg/mL) and 10.3 mg Na2HPO4. The total volume was completed to 2 mL with PBS, pH was adjusted to 7.4 by addition of HCl (1 M) and incubated for 10 minutes before cross-linking with selenocystamine dihydrochloride as described above. The final drug concentration in the sample were determined using UV-Vis spectroscopy by determining the loading efficiency (LE), calculated as follows: % LE=([stock drug]−[non-loaded drug]/[stock drug])*100.

[2] = Hydrogel degradation and cargo release after X-ray irradiation; assay type: physicochemical
Protocol: X-ray irradiation The radiation dose delivered to the sample is quantified in gray (Gy) with the relation of 1 Gy=1 J/kg. The X-ray irradiation was performed on an X-RAD 320ix irradiator (PXi, North Branford, CT) operated at 320 kV, 12.5 mA, focal spot of 8 mm^2 and with an aluminum filter of 2 mm delivering a dosage rate of 2.65 Gy/minute. In brief, the Se-PCPP hydrogel was sampled into 1 mL tube and placed in the irradiator chamber for the desired time depending onto the X-ray dose to be delivered.
Se-PCPP hydrogel ([Au]=0.2 mg/mL) was suspended into 1 mL of freshly prepared PBS/10 FBS in micro-centrifuge tubes and centrifuged at 4 k rpm for 8 minutes. Samples were irradiated with the desired X-ray dose and incubated at 37° C. for the overall experiment time. At the desired time point, samples were vortexed, centrifuged at 4000 rpm for 8 minutes and the supernatant was gently collected for quantification of the released cargo by ICP-OES or UV-vis spectroscopy. 1 mL of freshly prepared incubation medium was rapidly added to each sample, all were incubated at 37° C. until the next time point.

T4213 orthotopic tumor = assay: Orthotopic tumor implantation and treatment with Quisinostat; assay type: in vivo, athymic nude mice
From the text: T4213 cells were stably modified using a lentiviral vector containing GFP and Luciferase (Biosettia, San Diego, CA). Cells were resuspended in serum free media, and then 3.0×10^5 cells were stereotactically injected into the right striatum of five-week female athymic nude mice (Charles River Labs). Tumor bioluminescence was quantified on the IVIS spectrum (PerkinElmer, Hopkinton, MA) following intraperitoneal administration of D-Luciferin (Goldbio, St Louis MO) two days following cell implantation. In a separate experiment, mice underwent serial bioluminescent imaging following orthotopic T4213 implantation. Mice were assigned to different treatment groups such that the total flux (photons/s) was equivalent between groups (6.4×10^6 photons/s). Treatment was initiated immediately following bioluminescent imaging, and consisted of once daily intraperitoneal administration of 2-Hydroxypropyl-β-cyclodextrin (vehicle, Cayman Chemical, Ann Arbor MI) or 10 mg/kg Quisinostat (Cayman Chemical) for a total of eight doses (FIG. 5A). […] Bioluminescent imaging was repeated seventy-two hours after the last treatment was administered. […] Serial bioluminescence was assessed using a one-way repeated measures ANOVA followed by a post-hoc Tukey test. Post-treatment total flux was background corrected, and the percent change in total flux was analyzed using a Mann-Whitney U test. […]

[3] = tested on: Patient-derived glioblastoma organoids (GBOs); assay: Brain tumor organoids, compound incubation, viability and immunofluorescence; assay type: cell-based, human; details: 1.0 μM
Protocol: Glioblastoma organoids (GBOs) were generated from primary brain tumor as previously described.3 Briefly, primary brain tumor specimens were minced into approximately 1 mm pieces following clinical confirmation of pathologic diagnosis and incubated in GBO medium containing 50% DMEM:F12 (Thermo Fisher Scientific), 50% Neurobasal (Thermo Fisher Scientific), 1× GlutaMax (Thermo Fisher Scientific), 1× NEAAs (Thermo Fisher Scientific), 1× PenStrep (Thermo Fisher Scientific), 1× N2 supplement (Thermo Fisher Scientific), 1× B27 w/o vitamin A supplement (Thermo Fisher Scientific), 1× 2-mercaptoethanol (Thermo Fisher Scientific), and […] human insulin (Sigma) per well and placed on an orbital shaker rotating at 120 rpm within a 37° C., 5% CO2, and 90% humidity sterile incubator. Organoids would generally form 2-4 weeks following initial culturing. Organoids were then incubated in GBO containing media containing either DMSO (0.1%) or 1.0 μM quisinostat with media changes every two days for seven days total. Post-treatment images were taken on brightfield microscope and samples were subsequently fixed in 4% paraformaldehyde×30 minutes for immunofluorescence analysis.
Serial tissue sections (20 μm) were sliced using a cryostat (Leica, CM3050S), and melted onto charged slides (Thermo Fisher Scientific). Slides were dried at room temperature and stored at −20° C. until ready for immunohistology. For immunofluorescence staining, the tissue sections were outlined with a hydrophobic pen (Vector Laboratories) and washed with TBS containing 0.1% Tween-20 (v/v). Non-specific binding was blocked using a solution containing 10% donkey serum (v/v), 0.5% Triton X-100 (v/v), 1% BSA (w/v), 0.1% gelatin (w/v), and 22.52 mg/ml glycine in TBST for 1 hour at room temperature. […]
GBOs were imaged on a Zeiss LSM 710 confocal microscope (Zeiss) using a 20× objective with Zen 2 software (Zeiss). Images were quantified and analyzed using ImageJ software. […]

T4213 and NS039 cells = assay: Sphere formation assay; assay type: cell-based; details: 1.0 μM
Protocol: T4213 and NS039 cells were plated at 2000 cells/well in six well plates in the presence of 0.1% DMSO or 1.0 μM Quisinostat in biological triplicate for twelve days. On day twelve, individual wells were imaged on a Lionheart Fx microscope at 4× magnification following addition of NucBlue™ (Hoechst 33342, Invitrogen). Circular blue objects greater than 50 μm in diameter and less than […] were counted as neurospheres. Differences in sphere formation between cells and treatments were assessed using a one-way ANOVA followed by post-hoc Tukey's test in GraphPad Prism 8. P-values less than 0.05 were considered significant.

CHOP and DR5 = assay: Western blot analysis of CHOP and DR5; assay type: cell-based
Protocol: Western blot analysis was performed using standard techniques as understood in the art, including those described at least by S. Sheikh et. al., Mol. Cancer Res. 2019, 17 (5), 1102-1114.

Molecule | bioluminescent signal in cell-based death receptor assay (U251 DR5-Luc cells) | IC50 (NS039) | IC50 (T4213) | loading efficiency in Se-PCPP hydrogel [1] [%] | also measured
CCS(=O)(=O)Nc1ccc(Oc2ccc(F)cc2F)c(-c2cn(C)c(=O)c3[nH]ccc23)c1 [ABBV-075] | greater than our positive control Tunicamycin |  |  |  | 
O=C(/C=C/c1ccc(CN(CCO)CCc2c[nH]c3ccccc23)cc1)NO [Dacinostat] | greater than our positive control Tunicamycin |  |  |  | 
COc1ccc(-c2nc(N3CCOCC3)c3sc(CN(C)c4ncc(C(=O)NO)cn4)cc3n2)cn1 [CUDC-907] | greater than our positive control Tunicamycin | single digit nanomolar | single digit nanomolar |  | 
FITC-BSA |  |  |  | 91 | delivery profile from Se-PCPP hydrogel [2]: slower than both quisinostat and doxorubicin
COc1cccc2c1C(=O)c1c(O)c3c(c(O)c1C2=O)C[C@@](O)(C(=O)CO)C[C@@H]3O[C@H]1C[C@H](N)[C@H](O)[C@H](C)O1 [doxorubicin] |  |  |  | 74 | 
Cn1cc(CNCC2CCN(c3ncc(C(=O)NO)cn3)CC2)c2ccccc21 [Quisinostat] | greater than our positive control Tunicamycin | single digit nanomolar | single digit nanomolar | 81 | tumor bioluminescence (T4213 orthotopic tumor; 10 mg/kg once daily intraperitoneal with breaks, seventy-two hours after last treatment): significant reduction; mouse body weight (T4213 orthotopic tumor; systemic administration): reduction of mouse body weight; Caspase staining ([3]; five distinct GBO lines): increased; Ki67 staining ([3]; five distinct GBO lines): decreased; organoid size ([3]; seven days): noticeably shrink; cell morphology, sphere formation and integrity (T4213 and NS039 cells; Hoechst staining): shrunken and fragmented cell morphology; neurosphere formation (T4213 and NS039 cells; twelve days, control 120-130 neurospheres per well, p<0.05): 4-27 neurospheres per well; therapeutic window (ratio of IC50s between NHA and NS039) (NS039; normal human astrocytes vs NS039): favorable therapeutic window; therapeutic window (ratio of IC50s between NHA and T4213) (T4213; normal human astrocytes vs T4213): favorable therapeutic window; CHOP dependent DR5 expression (CHOP and DR5): at nanomolar concentrations
